The values that follow come from patent US7008666B2, “Method of inhibiting overactivity of phagocytes or lymphocytes in an individual” (Hormos Nutraceutical Oy Ltd., priority 2001, dated 2006).

In test [1] the test system is human neutrophils. As to the kind of experiment: Neutrophil oxidative burst, PMA-stimulated, lucigenin chemiluminescence. Format: cell-based. The following applies: human neutrophils in vitro, PMA stimulus. As to the method: (§1) Isolation of neutrophils: Neutrophils were isolated from 30 mL freshly drawn heparinized whole blood, after dextran sedimentation of erythrocytes for 30 min. The leucocyte rich plasma was layered over an equal volume of Percoll (Sigma) and centrifuged at 400×g for 15 min. Erythrocytes, contaminating the neutrophil pellet, were destroyed by osmotic lysis with 0.87% NH4Cl (pH 7.0). Neutrophils were washed with PBS (pH 7.1) and centrifuged at 200×g for 10 min. Cells were resuspended in fresh HBS (containing 0.8 g NaCl, 0.4 g KCl, 0.06 g Na2HPO4×2 H2O, 0.06 g KH2PO4, 0.1 g MgSO4×7H2O and 1 g glucose in 1000 mL of distilled water; pH adjusted to 7.4 by 7% NaHCO3) and counted before use.
Measurement of neutrophil oxidative burst: Production of reactive oxygen species by neutrophils was recorded by chemiluminescent analysis. Chemiluminescence measurements were performed with Bio-Orbit 1251 Luminometer connected to a personal computer with special programs for the assays (Bio-Orbit, Turku, Finland). The protocol for each assay included automatic pipetting of the appropriate reagent that initiated the reaction in all cuvettes. Six or twelve samples were analyzed simultaneously, depending on the assay. Disposable plastic cuvettes were used throughout.
One millilitre of cell suspension (final cell count 10^6 cells/mL) was placed in plastic cuvettes, and the level of resting chemiluminescence was recorded before addition of the stimulus; production of reactive oxygen by neutrophils (oxidative burst) was stimulated by addition of phorbol-myristate-acetate (PMA). The buffer (HBS, pH 7.4) was pipetted in a volume of 0.930 mL in the luminometer cuvette. Test compounds were added to incubation mixtures in a small volume (2% of total incubation volume) of ethanol. […] Fifty microliters of 5 mM lucigenin was added, and the reaction was initiated by 0.020 mL of 0.1 mM PMA at 37° C. The chemiluminescence was measured for about 45 min at 1 min cycles and the area under curve (integral) was calculated. […] Based on these experiments, a IC50-value (concentration that under these circumstances produced a 50% inhibition of neutrophil oxidative burst) was determined.

Test [2] addresses T1, Myeloperoxidase (Homo sapiens, UniProt P05164).
T1 construct: And Myeloperoxidase Activity Of Human Neutrophils In Vitro; endogenous in cells; host or cells: human neutrophils isolated from freshly drawn heparinized whole blood
Description: Myeloperoxidase activity, tetramethylbenzidine oxidation. The note with it: human neutrophils in vitro. The format is biochemical. As to the method:
as §1
Myeloperoxidase activity: Myeloperoxidase activity was determined by the method of Suzuki et al. (Suzuki, K., Ota, H., Sasagawa, S., Sakatoni, T., Fujikura, T., Ann Biochem 132:345–352, 1983) in which the enzyme catalyzes the oxidation of 3,3′,5,5′-tetramethylbenzidine by H2O2 to yield a blue chromogen with a maximum wavelength of 655 nm. Studies on myeloperoxidase inhibition in vitro were performed by adding test compounds to incubation mixtures in a small volume (2% of incubation volume) of ethanol. […] Based on these experiments, a IC50-value (concentration that under these circumstances produced a 50% inhibition of myeloperoxidase activity) was determined.

Test [3] concerns Fas receptor on Jurkat cells. Description: Fas receptor surface (FasR) expression, immunostaining. Format: cell-based, human. The following applies: 50 or 100 μM, versus untreated control. As to the method: Effect of lignans on Fas receptor surface (FasR) expression: The experiment was performed essentially as described in the literature (Brunner et al., Nature 373, 441–443, 1995). The surface expression of the FasR was measured by immunostaining alive Jurkat cells with an monoclonal anti-FasR antibody (Medical Biological Laboratories Co. Ltd, Japan, clone CH-11) and an anti-mouse antibody labelled with FITC (Alexis Biochemicals Ltd, USA) according to manufacturers instructions. The fluorescence intensity equals the amount of antibody bound to the FasR on the cell membrane.

In test [4] the test system is Monocytes. As to the kind of experiment: LPS-induced TNF-α production by monocytes, ELISA. The format is cell-based, human. The note with it: 100 μM, 24 h pre-incubation, LPS 1 μg/ml for 48 h; IL-10 100 U/ml. As to the method: Monocytes were isolated from human peripheral blood mononuclear cells by magnetic sorting. The cells were pre-incubated with the lignans matairesinol (as a reference compound) and enterolactone (1–100μM) or interleukin 10 (IL-10) (100 U/ml) for 24 hours before addition of LPS (1 μg/ml) into cell culture. After additional 48 hours the levels of TNF- from culture supernatants were measured by ELISA.
On the technique in general: ELISA stands for enzyme-linked immunosorbent assay.

Test [5] concerns Monocytes. The note with it: 1200 IU per day for 8 weeks, healthy volunteers; cited from earlier work.
For test [6], the system named is neutrophils. The following applies: 6.25 mg daily for 1 week; cited from earlier work.
For test [7], the system named is mononuclear cells. The note with it: 6.25 mg daily for 1 week; cited from earlier work.

T1 sequence (P05164 279-745 limits assumed): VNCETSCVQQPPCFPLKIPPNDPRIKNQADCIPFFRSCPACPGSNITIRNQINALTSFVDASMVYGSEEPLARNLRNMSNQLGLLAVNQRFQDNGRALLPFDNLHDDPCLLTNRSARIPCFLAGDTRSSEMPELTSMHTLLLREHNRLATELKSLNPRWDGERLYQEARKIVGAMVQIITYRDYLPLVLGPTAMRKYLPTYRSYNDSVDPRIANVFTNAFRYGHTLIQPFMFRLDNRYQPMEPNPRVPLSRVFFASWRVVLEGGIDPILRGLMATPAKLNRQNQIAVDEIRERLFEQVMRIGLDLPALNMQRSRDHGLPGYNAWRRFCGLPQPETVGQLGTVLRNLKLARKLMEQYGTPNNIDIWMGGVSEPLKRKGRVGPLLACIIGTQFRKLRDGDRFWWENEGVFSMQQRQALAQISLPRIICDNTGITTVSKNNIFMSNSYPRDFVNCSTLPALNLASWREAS
T1 sequence (P05164 165-273 limits assumed): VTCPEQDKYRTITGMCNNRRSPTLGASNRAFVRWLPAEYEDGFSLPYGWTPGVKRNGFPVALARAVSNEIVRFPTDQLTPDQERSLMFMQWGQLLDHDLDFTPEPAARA

As a reminder, the IC50 is the point on the concentration scale where inhibition reaches its midpoint. For the compound `CN(C)CCOc1ccc(/C(=C(/CCCl)c2ccccc2)c2ccc(O)cc2)cc1` [4-OH-toremifene, reference compound], the IC50 is 1.7 µM in test [1] and 54 µM in test [2].
As for `COc1cc(CC2C(=O)OCC2C(O)c2ccc(O)c(OC)c2)ccc1O` (stereo not shown) [Hydroxymatairesinol, hydroxymatairesinol], the values for the IC50 in test [1] (Neutrophil) and in test [2] were 5.3 µM and 6.8 µM, respectively. In addition, in test [3], the Fas surface expression result is recorded as “elevated level of Fas protein”.
Take `COc1cc(C[C@H]2COC(=O)[C@@H]2Cc2ccc(O)c(OC)c2)ccc1O` [Matairesinol, matairesinol]: the values for the half-maximal inhibitory concentration (IC50) in test [1] (Neutrophil) and in test [2] were 11 µM and 44.5 µM, respectively. The Fas surface expression result in test [3] is reported as “elevated level of Fas protein”. In addition, the “LPS-induced TNF-α production compared with positive control IL-10” value in test [4] was “at least as effective”.
`CC(=O)C(=Cc1cc(O)c(O)c([N+](=O)[O-])c1)C(C)=O` [Nitecapone, nitecapone, reference compound]: the concentration for half-maximal inhibition (IC50) was 7.5 µM in test [1] (Neutrophil) and 2.3 µM in test [2].
In the case of `Cc1c(C)c2c(c(C)c1O)CC[C@@](C)(CCC[C@H](C)CCC[C@H](C)CCCC(C)C)O2` [alpha-tocopherol], the “decrease in reactive oxygen production by monocytes” value in test [5] is 50%–60.
Regarding `COc1ccccc1OCCNCC(O)COc1cccc2[nH]c3ccccc3c12` (stereo not shown) [carvedilol], in test [6], the “decrease of reactive oxygen production by neutrophils” value is reported as 59%. For the same compound, the “decrease of reactive oxygen production by mononuclear cells” value in test [7] is 62%.
`O=C1OC[C@H](Cc2cccc(O)c2)[C@H]1Cc1cccc(O)c1` [enterolactone]: the Fas surface expression entry in test [3] is “elevated level of Fas protein”. Further, in test [4], the “LPS-induced TNF-α production compared with positive control IL-10” value is listed as “at least as effective”.
